Data taken from patent US12312359B2 (Vitae Pharmaceuticals, LLC, priority 2016, dated 2025).

Experiments:
[1] = molecular target: T1, biotinylated wild-type menin and MLL-AF9 fusion protein (menin/MLL binding) (Homo sapiens, UniProt O00255); assay: Assay 1: menin/MLL binding AlphaLISA assay, wild-type menin; details: Table 30; column head does not say wild-type or mutated menin
T1 construct: made in house; host or cells: menin: E. coli; MLL-AF9-FLAG: HEK293 cells, used as cleared lysate
T1 sequence (O00255 1-610): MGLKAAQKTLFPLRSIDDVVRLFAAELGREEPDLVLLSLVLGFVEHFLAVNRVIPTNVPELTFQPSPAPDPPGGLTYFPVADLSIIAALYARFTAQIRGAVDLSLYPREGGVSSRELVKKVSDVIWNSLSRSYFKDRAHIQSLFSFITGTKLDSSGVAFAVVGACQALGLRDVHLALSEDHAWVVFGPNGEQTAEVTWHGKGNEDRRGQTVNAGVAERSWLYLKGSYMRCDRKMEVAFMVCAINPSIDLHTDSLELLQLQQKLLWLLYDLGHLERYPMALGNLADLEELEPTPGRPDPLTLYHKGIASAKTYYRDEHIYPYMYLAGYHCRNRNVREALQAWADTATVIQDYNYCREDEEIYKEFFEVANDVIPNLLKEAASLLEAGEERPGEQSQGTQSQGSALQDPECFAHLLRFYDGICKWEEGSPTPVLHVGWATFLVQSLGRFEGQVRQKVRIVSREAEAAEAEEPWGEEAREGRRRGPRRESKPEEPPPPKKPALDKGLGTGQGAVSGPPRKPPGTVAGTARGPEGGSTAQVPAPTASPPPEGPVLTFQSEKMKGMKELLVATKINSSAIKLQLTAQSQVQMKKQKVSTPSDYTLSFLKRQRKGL
Outline: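 Compound was preincubated 30 min at room temperature with biotinylated menin (5 nM) and MLL-AF9-FLAG lysate from HEK293 cells, pH 7.4 buffer with 5% DMSO and DTT. Bead-based Alpha signal after 60 min with streptavidin donor and anti-FLAG acceptor beads; four-parameter logistic fit gave IC50.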

[2] = system: human acute monocytic leukemia cell line MV-4-11; assay: Assay 2: cell proliferation assay (ATP quantitation, CellTiter-Glo), MV-4-11; format: cell-based; details: MV-4-11 cells
Outline: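 MV-4-11 cells, 1.67×10^4 per well in medium with 10% FBS, were exposed to compound for 72 h at 37° C., 5% CO2; HL-60 cells served as toxicity control. Proliferation read as ATP content by CellTiter-Glo luminescence.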

| Compound | IC50 [1] | EC50 ([2]; Homo sapiens, MV4-11, 72 h) | EC50 ([2]; 72 h) |
| --- | --- | --- | --- |
| CC(C)c1ccccc1-c1cc(F)ccc1Oc1cncnc1N1CCC2(CCN(Cc3ccc4[nH]c(=O)[nH]c4c3)C2)C1 (single isomer, unassigned) [Example 41B, 5-((7-(5-((5-fluoro-2′-isopropyl-[1,1′-biphenyl]-2-yl)oxy)pyrimidin-4-yl)-2,7-diazaspiro[4.4]nonan-2-yl)methyl)-1H-benzo[d]imidazol-2(3H)-one] | < 100 nM | – | < 100 nM |
| CC(C)N(C)C(=O)c1cc(F)ccc1Oc1cncnc1N1CCC2(CCN(Cc3ccc4c(C#N)n[nH]c4c3)C2)C1 (stereo not drawn) [Example 146, 2-((4-(7-((3-cyano-1H-indazol-6-yl)methyl)-2,7-diazaspiro[4.4]nonan-2-yl)pyrimidin-5-yl)oxy)-5-fluoro-N-isopropyl-N-methylbenzamide] | < 100 nM | 100 to 1000 nM | – |
| CC(C)C(=O)N(CC(N)=O)c1cc(F)ccc1Oc1cncnc1N1CCC2(CCN(Cc3ccc4[nH]c(=O)[nH]c4c3)C2)C1 (stereo not drawn) [Example 73, N-(2-amino-2-oxoethyl)-N-(5-fluoro-2-((4-(7-((2-oxo-2,3-dihydro-1H-benzo[d]imidazol-5-yl)methyl)-2,7-diazaspiro[4.4]nonan-2-yl)pyrimidin-5-yl)oxy)phenyl)isobutyramide] | < 100 nM | 100 to 1000 nM | – |
| O=C(O)c1ccc(-c2cc(F)ccc2Oc2cncnc2N2CCC3(CCN(Cc4ccc5[nH]c(=O)[nH]c5c4)C3)C2)c(C2CC2)c1 (stereo not drawn) [Example 44, 2-cyclopropyl-5′-fluoro-2′-((4-(7-((2-oxo-2,3-dihydro-1H-benzo[d]imidazol-5-yl)methyl)-2,7-diazaspiro[4.4]nonan-2-yl)pyrimidin-5-yl)oxy)-[1,1′-biphenyl]-4-carboxylic acid] | < 100 nM | 100 to 1000 nM | – |
| CCN(C(=O)C(C)C)c1cc(F)ccc1Oc1cncnc1N1CC2(CN(CC3CCCCC3)C2)C1 [Example 106, N-(2-((4-(6-(cyclohexylmethyl)-2,6-diazaspiro[3.3]heptan-2-yl)pyrimidin-5-yl)oxy)-5-fluoro-phenyl)-N-ethylisobutyramide] | < 100 nM | < 100 nM | – |
| CCn1c(=O)[nH]c2cc(CN3CCC4(CCN(c5ncncc5Oc5ccc(F)cc5-c5ccc(C#N)cc5C5CC5)C4)C3)ccc21 (stereo not drawn) [Example 191, 2-cyclopropyl-2′-((4-(7-((1-ethyl-2-oxo-2,3-dihydro-1H-benzo[d]imidazol-5-yl)methyl)-2,7-diazaspiro[4.4]nonan-2-yl)pyrimidin-5-yl)oxy)-5′-fluoro-[1,1′-biphenyl]-4-carbonitrile] | < 100 nM | < 100 nM | – |
| N#Cc1ccc(-c2cc(F)ccc2Oc2cncnc2N2CCC3(CCC(N)(Cc4ccccc4)C3)C2)c(C2CC2)c1 (single isomer, unassigned) [Example 250B, 2′-((4-(7-amino-7-benzyl-2-azaspiro[4.4]nonan-2-yl)pyrimidin-5-yl)oxy)-2-cyclopropyl-5′-fluoro-[1,1′-biphenyl]-4-carbonitrile] | < 100 nM | ≥ 1000 nM | – |
| CC(C)N(C)C(=O)c1cc(F)ccc1Oc1cncnc1N1CCC2(CCN(Cc3ccc4c(c3)NC(=O)C4(C)C)C2)C1 (stereo not drawn) [Example 202, 2-((4-(7-((3,3-dimethyl-2-oxoindolin-6-yl)methyl)-2,7-diazaspiro[4.4]nonan-2-yl)pyrimidin-5-yl)oxy)-5-fluoro-N-isopropyl-N-methylbenzamide] | < 100 nM | 100 to 1000 nM | – |
| CC(C)C(=O)c1cc(F)ccc1Oc1cncnc1N1CCC2(CCN(Cc3ccc4c(c3)NC(=O)C4(C)C#N)C2)C1 (stereo not drawn) [Example 11, 6-((7-(5-(4-fluoro-2-isobutyrylphenoxy)pyrimidin-4-yl)-2,7-diazaspiro[4.4]nonan-2-yl)methyl)-3-methyl-2-oxoindoline-3-carbonitrile] | < 100 nM | < 100 nM | – |
| CC1(C)C(=O)Nc2cc(CN3CCC4(CCN(c5ncncc5Oc5ccc(F)cc5OC5CCCC5)C4)C3)ccc21 (stereo not drawn) [Example 193, 6-((7-(5-(2-(cyclopentyloxy)-4-fluorophenoxy)pyrimidin-4-yl)-2,7-diazaspiro[4.4]nonan-2-yl)methyl)-3,3-dimethylindolin-2-one] | < 100 nM | < 100 nM | – |
| CC(C)N(C)C(=O)c1cc(F)ccc1Oc1cncnc1N1CCC2(CCN(Cc3ccc4c(c3)[nH]c(=O)n4CCN(C)C)C2)C1 (stereo not drawn) [Example 124, 2-((4-(7-((1-(2-(dimethylamino)ethyl)-2-oxo-2,3-dihydro-1H-benzo[d]imidazol-5-yl)methyl)-2,7-diazaspiro[4.4]nonan-2-yl)pyrimidin-5-yl)oxy)-5-fluoro-N-isopropyl-N-methylbenzamide] | < 100 nM | 100 to 1000 nM | – |
| NC(=O)c1ccc2c(CN3CCC4(CCN(c5ncncc5Oc5ccc(F)cc5OCC5CC5)C4)C3)c[nH]c2c1 (stereo not drawn) [Example 200, 3-((7-(5-(2-(cyclopropylmethoxy)-4-fluorophenoxy)pyrimidin-4-yl)-2,7-diazaspiro[4.4]nonan-2-yl)methyl)-1H-indole-6-carboxamide] | < 100 nM | 100 to 1000 nM | – |
| CC(C)c1ncncc1-c1cc(F)ccc1Oc1cncnc1N1CC2(CC(NC3CCC(C)(C#N)CC3)C2)C1 (single isomer, unassigned) [Example 148A, 4-((2-(5-(4-fluoro-2-(4-isopropylpyrimidin-5-yl)phenoxy)pyrimidin-4-yl)-2-azaspiro[3.3]heptan-6-yl)amino)-1-methylcyclohexane carbonitrile] | < 100 nM | 100 to 1000 nM | – |
| N#Cc1ccc2c(CN3CCC4(CCN(c5ncncc5Oc5ccc(F)cc5OCC5CC5)C4)C3)c[nH]c2c1 (stereo not drawn) [Example 201, 3-((7-(5-(2-(cyclopropylmethoxy)-4-fluorophenoxy)pyrimidin-4-yl)-2,7-diazaspiro[4.4]nonan-2-yl)methyl)-1H-indole-6-carbonitrile] | < 100 nM | ≥ 1000 nM | – |

Continued, values first:

| IC50 [1] | EC50 ([2]; Homo sapiens, MV4-11, 72 h) | EC50 ([2]; 72 h) | Compound |
| --- | --- | --- | --- |
| < 100 nM | < 100 nM | – | CC(C)c1ncsc1-c1cc(F)ccc1Oc1cncnc1N1CCC2(CCN(Cc3ccc4[nH]c(=O)[nH]c4c3)C2)C1 (stereo not drawn) [Example 224, 5-((7-(5-(4-fluoro-2-(4-isopropylthiazol-5-yl)phenoxy)pyrimidin-4-yl)-2,7-diazaspiro[4.4]nonan-2-yl)methyl)-1,3-dihydro-2H-benzo[d]imidazol-2-one] |
| < 100 nM | 100 to 1000 nM | – | CC(O)c1ccccc1-c1cc(F)ccc1Oc1cncnc1N1CCC2(CCN(Cc3ccc4[nH]c(=O)[nH]c4c3)C2)C1 (stereo not drawn) [Example 60, 5-((7-(5-((5-fluoro-2′-(1-hydroxyethyl)-[1,1′-biphenyl]-2-yl)oxy)pyrimidin-4-yl)-2,7-diazaspiro[4.4]nonan-2-yl)methyl)-1H-benzo[d]imidazol-2(3H)-one] |
| < 100 nM | ≥ 1000 nM | – | CNC(=O)C1CC1c1cc(F)ccc1Oc1cncnc1N1CCC2(CCN(Cc3ccc4[nH]c(=O)[nH]c4c3)C2)C1 (stereo not drawn) [Example 38, 2-(5-fluoro-2-((4-(7-((2-oxo-2,3-dihydro-1H-benzo[d]imidazol-5-yl)methyl)-2,7-diazaspiro[4.4]nonan-2-yl)pyrimidin-5-yl)oxy)phenyl)-N-methylcyclopropane carboxamide] |
| < 100 nM | 100 to 1000 nM | – | CC(C)N(C)C(=O)c1cc(F)ccc1Oc1cncnc1N1CCC2(CCN(Cc3ccc4c(c3)[nH]c(=O)n4C)C2)C1 (stereo not drawn) [Example 163, 5-fluoro-N-isopropyl-N-methyl-2-((4-(7-((1-methyl-2-oxo-2,3-dihydro-1H-benzo[d]imidazol-5-yl)methyl)-2,7-diazaspiro[4.4]nonan-2-yl)pyrimidin-5-yl)oxy)benzamide] |
| < 100 nM | 100 to 1000 nM | – | CC(C)N(C(=O)c1cc(F)ccc1Oc1cncnc1N1CC2(CCN(C3CCc4cc(F)ccc4C3)C2)C1)C(C)C (stereo not drawn) [Example 114, 5-fluoro-2-((4-(6-(6-fluoro-1,2,3,4-tetrahydronaphthalen-2-yl)-2,6-diazaspiro[3.4]octan-2-yl)pyrimidin-5-yl)oxy)-N,N-diisopropylbenzamide] |
| < 100 nM | – | ≥ 1000 nM | N#Cc1ccc(-c2cc(F)cc(F)c2Oc2cncnc2N2CCC3(CCN(Cc4ccc5[nH]c(=O)[nH]c5c4)C3)C2)c(C2CC2)c1 (stereo not drawn) [Example 199, 2-cyclopropyl-3′,5′-difluoro-2′-((4-(7-((2-oxo-2,3-dihydro-1H-benzo[d]imidazol-5-yl)methyl)-2,7-diazaspiro[4.4]nonan-2-yl)pyrimidin-5-yl)oxy)-[1,1′-biphenyl]-4-carbonitrile] |
| < 100 nM | 100 to 1000 nM | – | CC(C)N(C)C(=O)c1cc(F)ccc1Oc1cncnc1N1CCC2(CCN(Cc3ccc4c(c3)NC(=O)CO4)C2)C1 (stereo not drawn) [Example 210, 5-fluoro-N-isopropyl-N-methyl-2-((4-(7-((3-oxo-3,4-dihydro-2H-benzo[b][1,4]oxazin-6-yl)methyl)-2,7-diazaspiro[4.4]nonan-2-yl)pyrimidin-5-yl)oxy)benzamide] |
